According to patent US20260176319A1, “PEPTIDE ANALOGS AND METHODS OF USING THE SAME” (Kallyope, Inc., priority 2024, published 2026):
Starred links: 1 amine or outer side, 2 acyl side, 3 side chain; linkers in the order of their positions; H or OH if unused. Non-standard residues stand in square brackets, D forms with d. Residues, ends and D or L forms follow the SMILES beside them. *: point of attachment. Me3N+(CH2)2O(CH2)2O(CH2)2CO = C[N+](C)(C)CCOCCOCCC(=O)*; Trp(7-Me) = Cc1cccc2c(C[C@H](N)C(=O)O)c[nH]c12; C20 diacid = O=C(O)CCCCCCCCCCCCCCCCCCC(=O)*; C18 diacid = O=C(O)CCCCCCCCCCCCCCCCC(=O)*; γGlu = O=C(O)[C@H](CCC(=O)[*:2])N[*:1]; 2Nal = N[C@@H](Cc1ccc2ccccc2c1)C(=O)O; NMeH = CN[C@@H](Cc1c[nH]cn1)C(=O)O; X1 = O=C(CC1(N[*:1])CCC1)[*:2]; Nle = CCCC[C@H](N)C(=O)O; β3hA = C[C@H](N)CC(=O)O; Dap = NC[C@H](N)C(=O)O; AEEA = NCCOCCOCC(=O)O; βAla = NCCC(=O)O; Sar = CNCC(=O)O

Each compound was assayed against T1, human GRP receptors (Homo sapiens, UniProt P30550) (assay: IP1 GRPR activity: HTRF IP1-Gq assay in U2OS cells stably expressing human GRP receptors). Details: 90 minutes incubation, read-out: hIP1 GRPR EC50.
T1 construct: host or cells: U2OS
Format: cell-based
Experimental: U2OS cells stably expressing human GRP receptors (DiscoverX, #93-0229C3) were cultured according to manufacturer's instructions. Cells were cultured to […], then collected using AccuTase (Innovative Cell Technologies, #AT104). Cells were washed and plated on a poly-D-lysine-coated 384-well plate (ThermoFisher, #A3890401) at a density of 2,500 cells/well in […] assay buffer (AssayComplete Cell Plating 5 Reagent, DiscoverX #93-0563R5), then incubated overnight at 37° C. and 5% C02. The following morning, a homogenous time-resolved fluorescence (HTRF) assay was performed in a 384-well plate format using the IP1-Gq assay kit (Cisbio, 62IPAPEB). Test compounds were made as a stock in DMSO, then serially diluted to generate 10-point dose response curves in IP1 stimulation buffer. Five microliters of the prepared compounds were then added to the plate containing cells and assay buffer in duplicate, and the cells were incubated at 37° C. and 5% CO2 for 90 minutes. Following compound incubation, […] of IP1 lysis/detection buffer (prepared according to manufacturer's instructions) was added to each well, and the plates were incubated at room temperature for 1 hour. HTRF signals were measured using a plate reader (ClarioSTAR), calculating the ratio between emissions at 665 nm and 620 nm (HTRF ratio). HTRF ratio for positive (Max, […]; SEQ ID NO. 45) and negative (Min, DMSO) controls were used to normalize HTRF data and generate values for % activity. EC50 and Max activity values were determined using a standard 4-parameter fit using GraphPad Prism.

T1 sequence (P30550 whole entry): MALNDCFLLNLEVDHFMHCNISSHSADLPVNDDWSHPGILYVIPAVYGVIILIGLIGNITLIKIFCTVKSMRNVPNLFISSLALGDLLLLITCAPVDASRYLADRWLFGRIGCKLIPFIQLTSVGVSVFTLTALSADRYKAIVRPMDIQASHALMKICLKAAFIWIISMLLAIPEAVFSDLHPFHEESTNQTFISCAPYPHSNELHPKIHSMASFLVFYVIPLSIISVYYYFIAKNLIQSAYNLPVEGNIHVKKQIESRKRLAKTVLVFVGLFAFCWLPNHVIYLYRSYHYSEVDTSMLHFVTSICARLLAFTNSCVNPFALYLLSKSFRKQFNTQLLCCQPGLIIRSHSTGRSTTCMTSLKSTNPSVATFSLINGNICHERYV

Row | Compound | EC50
1 | CCCC[C@H](NC(=O)[C@H](CC(C)C)NC(=O)[C@H](Cc1c[nH]cn1)NC(=O)[C@@H](C)NC(=O)[C@@H](NC(=O)[C@H](C)NC(=O)[C@H](Cc1c[nH]c2ccccc12)NC(=O)[C@H](Cc1c[nH]cn1)NC(=O)[C@H](CC(N)=O)NC(=O)[C@H](CCCNC(=N)N)NC(=O)COCCOCCNC(=O)COCCOCCNC(=O)CC[C@H](NC(=O)CCCCCCCCCCCCCCCCC(=O)O)C(=O)O)C(C)C)C(=O)O [Peptide 156, Octadecanedioyl-γGlu-OEG-OEG-Arg-Asn-His-Trp-Ala-Val-D-Ala-His-Leu-Nle] ({C18 diacid-γGlu-AEEA-AEEA}-RNHWAV[dA]HL[Nle]-OH) | 358 nM
2 | CCCC[C@H](NC(=O)[C@H](CC(C)C)NC(=O)[C@H](Cc1c[nH]cn1)NC(=O)[C@@H](C)NC(=O)[C@@H](NC(=O)[C@@H](C)NC(=O)[C@H](Cc1c[nH]c2ccccc12)NC(=O)[C@H](Cc1c[nH]cn1)NC(=O)[C@H](CC(=O)O)NC(=O)CNC(=O)COCCOCCNC(=O)COCCOCCNC(=O)CC[C@H](NC(=O)CCCCCCCCCCCCCCCCC(=O)O)C(=O)O)C(C)C)C(N)=O [Peptide 139, Octadecanedioyl-γGlu-OEG-OEG-Gly-Asp-His-Trp-D-Ala-Val-D-Ala-His-Leu-Nle-NH2] ({C18 diacid-γGlu-AEEA-AEEA}-GDHW[dA]V[dA]HL[Nle]-NH2) | > 10000 nM
3 | CCCC[C@H](NC(=O)[C@H](CC(C)C)NC(=O)[C@H](Cc1c[nH]cn1)NC(=O)CCNC(=O)[C@@H](NC(=O)[C@H](C)NC(=O)[C@H](Cc1c[nH]c2ccccc12)NC(=O)[C@H](Cc1c[nH]cn1)NC(=O)[C@H](CNC(=O)CCOCCOCC[N+](C)(C)C)NC(=O)CNC(=O)COCCOCCNC(=O)COCCOCCNC(=O)CC[C@H](NC(=O)CCCCCCCCCCCCCCCCCCC(=O)O)C(=O)O)C(C)C)C(N)=O [Peptide 262, Eicosanedioyl-γGlu-OEG-OEG-Gly-Dap(2CE-PEG-TMEA)-His-Trp-Ala-Val-β-Ala-His-Leu-Nle-NH2] ({C20 diacid-γGlu-AEEA-AEEA}-G[Dap](Me3N+(CH2)2O(CH2)2O(CH2)2CO)HWAV[βAla]HL[Nle]-NH2) | 4 nM
4 | CCCC[C@H](NC(=O)[C@H](CC(C)C)NC(=O)[C@H](Cc1c[nH]cn1)NC(=O)[C@@H](C)NC(=O)[C@@H](NC(=O)[C@H](C)NC(=O)[C@H](Cc1ccc2ccccc2c1)NC(=O)[C@H](Cc1c[nH]cn1)NC(=O)[C@H](CC(N)=O)NC(=O)CNC(=O)COCCOCCNC(=O)COCCOCCNC(=O)CC[C@H](NC(=O)CCCCCCCCCCCCCCCCC(=O)O)C(=O)O)C(C)C)C(=O)N(C)CC(N)=O [Peptide 99, Octadecanedioyl-γGlu-OEG-OEG-Gly-Asn-His-2Nal-Ala-Val-D-Ala-His-Leu-Nle-Sar-NH2] ({C18 diacid-γGlu-AEEA-AEEA}-GNH[2Nal]AV[dA]HL[Nle][Sar]-NH2) | > 10000 nM
5 | CCCC[C@H](NC(=O)[C@H](CC(C)C)NC(=O)[C@H](Cc1cnc[nH]1)N(C)C(=O)C[C@H](C)NC(=O)[C@@H](NC(=O)[C@H](C)NC(=O)[C@H](Cc1c[nH]c2c(C)cccc12)NC(=O)[C@H](Cc1c[nH]cn1)NC(=O)[C@H](CCC(N)=O)NC(=O)CNC(=O)COCCOCCNC(=O)COCCOCCNC(=O)CC[C@H](NC(=O)CC[C@H](NC(=O)CCCCCCCCCCCCCCCCCCC(=O)O)C(=O)O)C(=O)O)C(C)C)C(N)=O [Peptide 270, Eicosanedioyl-γGlu-γGlu-OEG-OEG-Gly-Gln-His-7MeTrp-Ala-Val-BABA-NMeHis-Leu-Nle-NH2] ({C20 diacid-γGlu-γGlu-AEEA-AEEA}-GQH[Trp(7-Me)]AV[β3hA][NMeH]L[Nle]-NH2) | 3.8 nM
6 | CCCC[C@H](NC(=O)[C@H](CC(C)C)NC(=O)[C@H](Cc1c[nH]cn1)NC(=O)CC1(NC(=O)[C@@H](NC(=O)[C@H](C)NC(=O)[C@H](Cc2c[nH]c3ccccc23)NC(=O)[C@H](Cc2c[nH]cn2)NC(=O)[C@H](CCC(N)=O)NC(=O)CNC(=O)COCCOCCNC(=O)COCCOCCNC(=O)CC[C@H](NC(=O)CC[C@H](NC(=O)CCCCCCCCCCCCCCCCCCC(=O)O)C(=O)O)C(=O)O)C(C)C)CCC1)C(N)=O [Peptide 273, Eicosanedioyl-γGlu-Glu-OEG-OEG-Gly-Gln-His-Trp-Ala-Val-ACBA-His-Leu-Nle-NH2] ({C20 diacid-γGlu-γGlu-AEEA-AEEA}-GQHWAV[X1]HL[Nle]-NH2) | 12.3 nM
